Test results taken from US9809597B2, “Ganciclovir derivatives for modulating innate and adaptive immunity and for use in immunotherapy” (The Board of Trustees of the Leland Stanford Junior …, priority 2015, dated 2017).

Columns and labels:
Format in all cases: cell-based, mouse
[1] = test system: BV-2 and primary microglia stimulated with IFNγ and LPS; test: RT-PCR of inflammatory transcripts in IFNγ/LPS stimulated microglia; conditions: 200 μM GCV, 24 hours
Description: BV-2 mouse microglia cells were grown in DMEM+10% FBS and THP-1 human monocyte cells were grown in RPMI-40+10% FBS+0.05 mM β-mercaptoethanol at 37° C., 5% CO2. Adherent cells were split using 1×TrypLE (Gibco). For cellular assays, cells were treated with the following concentrations of drugs as indicated in the DMEM without serum: 100-200 μM ganciclovir, 10 ng/ml IFNγ (R&D systems), 100 ng/ml LPS (Sigma-Aldrich), 1-10 μM Fludarabine (Selleckchem), 1 μM Ruxolitinib (Selleckchem), 1 μM TG-101348 (Selleckchem), 1 μM Amlexanox (Tocris bioscience) unless otherwise noted. All experiments were run in triplicates and replicated at least 3 times with cell lines and at least twice with primary microglia. Average data are shown for cell lines and representative data are shown for primary cells. Secreted signaling proteins were measured in supernatants from cultured cells stimulated with GCV and conditioned for 24 hours in the absence of serum using two independent Luminex arrays (Human Immune Monitoring Center, Stanford and Eve technologies, Canada). Nitrite assay was performed on conditioned culture supernatants of cells stimulated with drugs for 24 hours using the Griess Reagent System (Promega) according to manufacturer's instructions. To assess cellular viability, cell confluence was measured using an automated microscope (Cellavista; Roche). Mice were housed and bred according to the Institutional Animal Care and Use Committee guidelines. Primary microglia and astrocytes were isolated from P0-P3 C57BL/6 mouse pups. Cortices from pups were isolated, meninges removed and tissue was dissociated using a 25-gauge needle. Two cortices were plated on each poly-L-lysine coated T-75 flasks in DMEM/F12+10% FBS+1% penicillin/streptomycin. Microglia and astrocyte co-cultures were maintained for 3 weeks, after which microglia were isolated using CD11b magnetic beads (Miltenyi Biotec) according to the manufacturer's instructions. Isolated microglia were allowed to recover for 1-2 days and processed for cellular assays described above. RNA was isolated from cells using RNeasy mini kit from Qiagen. […] was converted to cDNA using SuperScript III reverse transcriptase kit (Life technologies). The cDNA was used to quantify specific targets using SYBR green in Roche Lightcycler 480. ΔΔCt values normalized against the experimental control to determine fold change in mRNA for each sample compared to untreated or vehicle treated control. β-actin or Ubc or both were used as housekeeping genes. Primer sequences were obtained from PrimerBank. Fold change is shown compared to the vehicle treated or untreated cells, unless otherwise noted.

BV-2 cells = test: RT-PCR for CXCL10 and IFNβ transcripts in BV-2 cells
Description: BV-2 mouse microglia cells were grown in DMEM+10% FBS and THP-1 human monocyte cells were grown in RPMI-40+10% FBS+0.05 mM β-mercaptoethanol at 37° C., 5% CO2. Adherent cells were split using 1×TrypLE (Gibco). For cellular assays, cells were treated with the following concentrations of drugs as indicated in the DMEM without serum: 100-200 μM ganciclovir, 10 ng/ml IFNγ (R&D systems), 100 ng/ml LPS (Sigma-Aldrich), 1-10 μM Fludarabine (Selleckchem), 1 μM Ruxolitinib (Selleckchem), 1 μM TG-101348 (Selleckchem), 1 μM Amlexanox (Tocris bioscience) unless otherwise noted. All experiments were run in triplicates and replicated at least 3 times with cell lines and at least twice with primary microglia. Average data are shown for cell lines and representative data are shown for primary cells. Secreted signaling proteins were measured in supernatants from cultured cells stimulated with GCV and conditioned for 24 hours in the absence of serum using two independent Luminex arrays (Human Immune Monitoring Center, Stanford and Eve technologies, Canada). Nitrite assay was performed on conditioned culture supernatants of cells stimulated with drugs for 24 hours using the Griess Reagent System (Promega) according to manufacturer's instructions. To assess cellular viability, cell confluence was measured using an automated microscope (Cellavista; Roche).
(§1) RNA was isolated from cells using RNeasy mini kit from Qiagen. DNased RNA was converted to cDNA using SuperScript III reverse transcriptase kit (Life technologies). The cDNA was used to quantify specific targets using SYBR green in Roche Lightcycler 480. ΔΔCt values normalized against the experimental control to determine fold change in mRNA for each sample compared to untreated or vehicle treated control. β-actin or Ubc or both were used as housekeeping genes. Primer sequences were obtained from PrimerBank. Fold change is shown compared to the vehicle treated or untreated cells, unless otherwise noted.

BV-2 microglia = test: siRNA knockdown (STING, IRF3, Stat1, Jak2), then RT-PCR for CXCL10
Description: Smartpool siRNAs against mouse targets were bought from Dharmacon and transfected in microglia cells using Viromer Blue from Lipocalyx at a concentration of 50 nM according to manufacturer's instructions. Drugs were added cells after 24 hours of transfection and assays done 24 hours after addition of drugs.
as §1

[2] = BV-2 and primary microglia stimulated with IFNγ and LPS
[3] = IFNγ/LPS-stimulated STING^gt/gt primary microglia
[4] = BV-2 microglia, siRNA 24 hours, then 200 μM for 24 hours

`Nc1nc(O)c2ncn(COC(CO)CO)c2n1` [GCV, Ganciclovir] was tested, and the CCL2 transcript [1, 2] was “almost complete transcriptional inhibition”, the iNOS transcript [1, 2] was “almost complete transcriptional inhibition” and the “iNOS and CCL2 transcripts in GCV treated STING^gt/gt microglia” value [1, 3] was “higher”. For the same compound, the “reduction of inflammatory markers in STING^gt/gt primary microglia” value [1, 3] was “unable to do so”, the “inflammatory markers in wildtype primary microglia” value ([1]; IFNγ/LPS-stimulated wildtype primary microglia) was “reduced” and the “induction of CXCL10 mRNA on neutralization of IFNβ with an antibody” value (BV-2 cells; BV-2 cells, 200 μM with anti-IFNβ antibody, 4 hours) was “partly reduced”. The EC50 (BV-2 cells; Mus musculus, BV-2 microglia, dose response, read-out: EC50, increase of CXCL10 transcript) was about 160 µM, the “induction of IFNβ transcript” value (BV-2 cells; microglia (BV-2, primary), 200 μM) was “induced” and the “CXCL10 or IFNβ mRNA expression after siRNA knockdown of Stat1 and Jak2 or lack of Stat1” value (BV-2 microglia; BV-2 cells (siRNA) or Stat1 knockout primary microglia, 200 μM) was “significantly reduced”. For the same compound, the “capacity to induce CXCL10 after siRNA knock down of STING” value (BV-2 microglia; [4]) was “to a lesser extent” and the “potential to induce CXCL10 mRNA after siRNA knockdown of IRF3” value (BV-2 microglia; [4]) was “inhibited”.
